Experimental data reported in US20050113413A1, “Naphthalene-1,5-disulfonic acid salts of a substituted 4-amino-1-(pyridylmethyl)piperidine compound” (priority 2003, published 2005).

Tested on: rat bladder (volume-induced bladder contractions)
Assay: In vivo rat bladder assay (volume-induced bladder contraction amplitude)
Set-up: species or system Sprague-Dawley rats
Details: anesthetized female rats, intravenous, normalized to atropine response
Method: Female Sprague-Dawley rats (Harlan, Indianapolis, Ind.) weighing 200 to 300 g were anesthetized with urethane (1.5 g/kg, s.c., Sigma, St. Louis, Mo.), with a supplement of 0.25 g/kg, s.c. urethane as needed. Urethane was administered at a concentration of 0.25 g/mL.
Rats were prepared for surgery by shaving the neck and abdomen and cleansing with ethanol wipes. First, an incision was made on the ventral surface. An intravenous catheter was placed by isolating and ligating the femoral vein. […]
Thereafter, an intravenous dose of the test compound was administered and changes in VIBCAmp were recorded for 15 minutes. Atropine (0.1 mg/kg) was then administered intravenously (1 mL/kg) as a positive control and VIBCAmp and data was recorded for an additional 15 minutes. […]
Alternatively, after the vehicle, increasing cumulative intravenous doses of the test compound were administered at 15 minute intervals (1 mL/kg) and changes in VIBCAmp were recorded for 15 minutes. […]
The average VIBCAmp during the 5-15 minute period after test compound and atropine was determined and subtracted from the average VIBCAmp during the 5-15 minute post-vehicle period to obtain the test compound or atropine-induced change in VIBCAmp. […]

## COc1ccncc1CN1CCC(N(CCCCCCCN2CC[C@@H](C(C(N)=O)(c3ccccc3)c3ccccc3)C2)C(C)C)CC1 [Example 6]
  ID50 (dose required to produce 50% of the maximal response), VIBCAmp: less than or equal to 0.1 mg/kg
